From US6130229A, “Tricyclic compounds having activity as RAS-FPT inhibitors” (Schering Corporation, priority 1997, dated 2000)
pIC50: −log10 of the molar value.

Target: farnesyl protein transferase
Test: Inhibition of farnesyl protein transferase (test of WO 95/10514)
Assay type: biochemical
Conditions: percent inhibition relative to DMSO vehicle control, IC50 estimated
Source text: The compounds of the invention can be tested by standard methods, for example by those published in published PCT application WO 95/10514 published Apr. 20, 1995 (starting at page 61), the disclosure of which is hereby incorporated herein by reference. Particularly relevant assays and studies include In vitro enzyme assays, Cell-Based Assays, Cell Mat Assays, and In Vivo Anti-Tumor Studies.
Such Assays and Studies indicate that compounds of the Formula I above are selective inhibitors of Ras-FPT and can be used as anti-tumor agents. The following Table presents IC50 values obtained in the test for Inhibition of farnesyl protein transferase, reported in published PCT application WO 95/10514. Percent inhibition was calculated relative to the DMSO vehicle control, and an IC50 value was estimated.

Row | SMILES | pIC50
1 | CN1Cc2cccnc2C(N2CCN(C(=O)Cc3cc[n+]([O-])cc3)CC2)c2ccc(Cl)cc21 (stereo not shown) [Example 34] | 5.57
2 | O=C(Cc1cccnc1)N1CCC(=C2c3ccc(Cl)cc3OCc3cccnc32)CC1 [Example 6, 4-(8-Chloro-5,11-dihydro[1]benz-oxepino[4,3-b]pyridin-11-ylidene)-1-(3-pyridine-acetyl)piperidine] | 5.64
3 | CN1Cc2cccnc2C(N2CCN(C(=NCc3ccncc3)NC#N)CC2)c2ccc(Cl)cc21 (stereo not shown) [Example 37, 4-(8-Chloro-6,11-dihydro-6-methyl-5H-pyrido[3,2-c][1]benzazepin-11-yl)-N-cyano-N'-(4-pyridinylmethyl)-1-piperazine-carboximidamide] | 6.85
4 | CN1Cc2cccnc2C(N2CCN(C(=O)CC3CCN(C(=O)OC(C)(C)C)CC3)CC2)c2ccc(Cl)cc21 (stereo not shown) [Example 38, 1,1-Dimethylethyl 4-[2-[4-(8-chloro-6,11-dihydro-6-methyl-5H-pyrido[3,2-c][1]benzazepin-11-yl)-1-piperazinyl]2-oxoethyl]-1-piperidine-carboxylate] | < 5.44
5 | O=C(Cc1cc[n+]([O-])cc1)N1CCC(=C2c3ccc(Cl)cc3OCc3cc(Br)cnc32)CC1 [Example 4, 4-(3-Bromo-8-chloro-5,11-dihydro[1]benzoxepino[4,3-b]pyridin-11-ylidene)-1-(4-pyridine-acetyl)piperidine N1-oxide] | 6.96
6 | O=C(CC1CCNCC1)N1CCN(C2c3ccc(Cl)cc3SCc3cccnc32)CC1 (stereo not shown) [Example 12A, 4-(8-Chloro-5,11-dihydro-[1]benzothiepino[4,3-b]pyridin-11-yl)-1-(4-piperidinyl-acetyl)piperazine] | 5.96
7 | O=C(Cc1ccncc1)N1CCC(=C2c3ccc(Cl)cc3OCc3cccnc32)CC1 [Example 5, 4-(8-Chloro-5,11-dihydro[1]benz-oxepino[4,3-b]pyridin-11-ylidene)-1-(4-pyridine-acetyl)piperidine] | 6.12
8 | O=C(Cc1cc[n+]([O-])cc1)N1CCN(C2c3ccc(Cl)cc3[S+]([O-])Cc3cccnc32)CC1 (stereo not shown) [Example 17A (sulfoxide), 4-(8-Chloro-5,11-dihydro-[1]benzothiepino[4,3-b]pyridin-11-yl)-1-(4-pyridine-acetyl)piperazine N1,6,-dioxide] | < 5.40
9 | CSC(=NC#N)N1CCN(C2c3ccc(Cl)cc3N(C)Cc3cccnc32)CC1 (stereo not shown) [Example 36, Methyl 4-(8-chloro-6,11-dihydro-6-methyl-5H-pyrido[3,2-c][1]benzazepin-11-yl)-N-cyano-1-piperazinecarboximidothioate] | 5.96
10 | CC(C)(C)OC(=O)N1CCC(CC(=O)N2CCC(=C3c4ccc(Cl)cc4SCc4cccnc43)CC2)CC1 [Example 11B, 1,1 -Dimethylethyl 4-[2-[4-(8-chloro-5,11-dihydro-[1]benzothiepino[4,3-b]pyridin-11-ylidene)-1-piperidinyl]2-oxoethyl]-1-piperidine-carboxylate] | 5.49
11 | N#CNC(=NCc1ccncc1)N1CCC(=C2c3ccc(Cl)cc3OCc3cccnc32)CC1 [Example 3, 4-(8-Chloro-5,11-dihydro[1]benzoxepino[4,3-b]pyridin-11-ylidene)-N-cyano-N'-(4-pyridinylmethyl)-1-piperidine-carboximidamide] | < 7.38
12 | O=C(Cc1cc[n+]([O-])cc1)N1CCC(=C2c3cc(Br)c(Cl)cc3OCc3cccnc32)CC1 [Example 7A, 4-(9-Bromo-8-chloro-5,11-dihydro[1]benzoxepino[4,3-b]pyridin-11-ylidene)-1-(4-pyridine-acetyl)piperidine N1-oxide] | < 6.40
13 | CN1Cc2cccnc2C(N2CCN(C(=O)CC3CCNCC3)CC2)c2ccc(Cl)cc21 (stereo not shown) [Example 39, 4-(8-Chloro-6,11-dihydro-6-methyl-5H-pyrido[3,2-c][1]benzazepin-11-yl)-1-(4-piperidine-acetyl)piperazine] | < 5.89
14 | N#CNC(=NCc1ccncc1)N1CCN(C2c3ccc(Cl)cc3SCc3cccnc32)CC1 (stereo not shown) [Example 19, 4-(8-Chloro-5,11-dihydro[1]benzothiepino[4,3-b]pyridin-11-yl)-N-cyano-N'-(4-pyridinylmethyl)-1-piperazine-carboximidamide] | 7.21
15 | CSC(=NC#N)N1CCC(=C2c3ccc(Cl)cc3SCc3cccnc32)CC1 [Example 22] | 6.70
16 | NC(=O)N1CCC(CC(=O)N2CCC(=C3c4ccc(Cl)cc4S(=O)(=O)Cc4cccnc43)CC2)CC1 [Example 29, 4-[2-[4-(8-Chloro-5,11-dihydro-[1]benzothiepino[4,3-b]pyridin-11-ylidene)-1-piperidinyl]-2-oxoethyl]-1-piperidinecarboxamide-6,6-dioxide] | < 5.96
17 | O=C(CSc1ccncc1)N1CCN(C2c3ccc(Cl)cc3SCc3cccnc32)CC1 (stereo not shown) [Example 14A, 4-(8-Chloro-5,11-dihydro-[1]benzothiepino[4,3-b]pyridin-11-yl)-1-[(4-pyridinyl-thio)acetyl]piperazine] | 6.00

Row | SMILES | pIC50
18 | N#CN=C(NCc1ccc[n+]([O-])c1)N1CCC(=C2c3ccc(Cl)cc3SCc3cccnc32)CC1 [Example 24] | 7.42
19 | NC(=O)N1CCC(CC(=O)N2CCC(=C3c4ccc(Cl)cc4SCc4cccnc43)CC2)CC1 [Example 15B, 4-[2-[4-(8-Chloro-5,11-dihydro-[1]benzothiepino[4,3-b]pyridin-11-ylidene)-1-piperidinyl]-2-oxoethyl]-1-piperidinecarboxamide] | 6.04
20 | N#CNC(=NCc1ccncc1)N1CCC(=C2c3ccc(Cl)cc3SCc3cccnc32)CC1 [Example 23, 4-(8-Chloro-5,11-dihydro[1]benzothiepino[4,3-b]pyridin-11-ylidene)-N-cyano-N'-(4-pyridinylmethyl)-1-piperidine-carboximidamide] | 7.37
21 | CC(C)(C)OC(=O)N1CCC(CC(=O)N2CCN(C3c4ccc(Cl)cc4SCc4cccnc43)CC2)CC1 (stereo not shown) [Example 11A, 1,1-Dimethylethyl 4-[2-[4-(8-chloro-5,11-dihydro-[1]benzothiepino[4,3-b]pyridin-11-yl)-1-piperazinyl]2-oxoethyl]-1-piperidinecarboxylate] | < 5.96
22 | CN1CCC(CC(=O)N2CCC(=C3c4ccc(Cl)cc4SCc4cccnc43)CC2)CC1 [Example 26, 4-(8-Chloro-5,11-dihydro[1]benzothiepino[4,3-b]pyridin-11-ylidene)-1-(1-methyl-4-piperidine-acetyl)-piperidine] | 5.75
23 | O=C(Cc1ccncc1)N1CCN(C2c3ccc(Cl)cc3S(=O)(=O)Cc3cccnc32)CC1 (stereo not shown) [Example 16A, 4-(8-Chloro-5,11-dihydro-[1]benzothiepino[4,3-b]pyridin-11-yl)-1-(4-pyridine-acetyl)piperazine 6,6-dioxide] | 6.00
24 | N#CN=C(NCc1ccc2c(c1)OCO2)N1CCN(C2c3ccc(Cl)cc3SCc3cccnc32)CC1 (stereo not shown) [Example 20A, N-[(1,3-Benzodioxol-5-yl)methyl]-4-(8-chloro-5,11-dihydro[1]benzothiepino[4,3-b]pyridin-11-yl)-N'-cyano-1-piperazine-carboximidamide] | < 6.43
25 | CN1CCC(CC(=O)N2CCN(C3c4ccc(Cl)cc4SCc4cccnc43)CC2)CC1 (stereo not shown) [Example 10, 4-(8-Chloro-5,11-dihydro-[1]benzothiepino[4,3-b]pyridin-11-yl)-1-(1-methyl-4-piperidine-acetyl)piperazine] | 5.68
26 | O=C(Cc1ccccc1[N+](=O)[O-])C(=O)N1CCN(C2c3ccc(Cl)cc3SCc3cccnc32)CC1 (stereo not shown) [Example 13] | 5.42
27 | CC1(C)c2cccnc2C(=C2CCN(C(=O)Cc3cc[n+]([O-])cc3)CC2)c2ccc(Cl)cc2S1(=O)=O [Example 30, 4-(8-Chloro-5,11-dihydro-5,5-dimethyl-[1]benzothiepino[4,3-b]pyridin-11-ylidene)-1-(4-pyridine-acetyl)piperidine-6,6-dioxide N1-oxide] | < 5.96
28 | CC(C)(C)OC(=O)N1CCC(CC(=O)N2CCC(=C3c4ccc(Cl)cc4S(=O)(=O)Cc4cccnc43)CC2)CC1 [Example 27] | < 5.92
29 | O=C(Cc1cc[n+]([O-])cc1)N1CCC(=C2c3ccc(Cl)cc3SCc3cccnc32)CC1 [Example 9B, 4-(8-Chloro-5,11-dihydro-[1]benzothiepino[4,3-b]pyridin-11-ylidene)-1-(4-pyridine-acetyl)piperidine N1-oxide] | 6.28
30 | CN1Cc2cccnc2C(N2CCN(C(=O)Cc3ccncc3)CC2)c2ccc(Cl)cc21 (stereo not shown) [Example 35, 4-(8-Chloro-6,11-dihydro-6-methyl-5H-pyrido[3,2-c][1]benzazepin-11-yl)-1-(4-pyridine-acetyl)piperazine] | 6.08
31 | O=C(Cc1cc[n+]([O-])cc1)N1CCN(C2c3ccc(Cl)cc3S(=O)(=O)Cc3cccnc32)CC1 (stereo not shown) [Example 17A (sulfone), 4-(8-Chloro-5,11-dihydro-[1]benzothiepino[4,3-b]pyridin-11-yl)-1-(4-pyridine-acetyl)piperazine N1,6,6-trioxide] | 5.47
32 | O=C(Cc1ccncc1)N1CCC(=C2c3ccc(Cl)cc3SCc3cccnc32)CC1 [Example 25, 4-(8-Chloro-5,11-dihydro[1]benzothiepino[4,3-b]pyridin-11-ylidene)-1-(pyridine-4-acetyl)-piperidine] | 6.72
33 | O=C(Cc1cc[n+]([O-])cc1)N1CCN(C2c3ccc(Cl)cc3SCc3cccnc32)CC1 (stereo not shown) [Example 9A, 4-(8-Chloro-5,11-dihydro-[1]benzothiepino[4,3-b]pyridin-11-yl)-1-(4-pyridine-acetyl)piperazine N1-oxide] | 6.10
34 | O=C(Cc1cc[n+]([O-])cc1)N1CCN(C2c3ccc(Cl)cc3OCc3cccnc32)CC1 (stereo not shown) [Example 1, 4-(8-Chloro-5,11-dihydro[1]benzoxepino[4.3-b]pyridin-11-yl)-1-(4-pyridine-acetyl)-piperazine N1-oxide] | 5.89
